From ChEMBL document CHEMBL1201862, “PubChem BioAssay data set” (2004) come the findings set out here.

Test systems include ACHN; CAKI-1; EKVX; HCC 2998; HCT-116; HCT-15; HL-60; HOP-92; MCF7; MOLT-4; Malme-3M; NCI-H23; NCI/ADR-RES; OVCAR-5; OVCAR-8; RXF 393; SNB-19; U-251; UACC-62; SR.
Holding throughout (assay): DTP human tumour cell line panel, 48 h

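How tested: cells in 96-well plates exposed to compound for 48 hours at five concentrations. Abbreviation: GI50, concentration required for 50% inhibition of growth.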 Calls of active or inactive are those of the source. Rule as the data show it: active = GI50 up to about 1.1 µM and inactive = higher. Some results are limits rather than exact numbers.

Broadly, the GI50 is the concentration at which growth is held to half of that of the control. Consider `Oc1ccc(NCc2cc(O)ccc2O)cc1`, for which the GI50 is 16.1 µM (inactive) in the assay on ACHN; 16 µM (inactive) in the assay with CAKI-1; 15.7 µM (inactive) in the assay with EKVX; 16.9 µM (inactive) with HCC 2998; 15.3 µM (inactive) in the assay with HCT-116; 15.6 µM with HCT-15. The GI50 was 3.03 µM (inactive) in the assay on HL-60; 13.1 µM (inactive) in the assay on HOP-92; 13.9 µM (inactive) in the assay on MCF7; 3.07 µM (inactive) with MOLT-4; 19.1 µM (inactive) in the assay on Malme-3M; 18.1 µM (inactive) with NCI-H23. For the same compound, the GI50 was 18.4 µM (inactive) in the assay on NCI/ADR-RES; 18.3 µM (inactive) in the assay with OVCAR-5; 25.8 µM (inactive) in the assay on OVCAR-8; 15.3 µM (inactive) in the assay on RXF 393; 18.5 µM (inactive) with SNB-19; 15.7 µM (inactive) in the assay on U-251. The GI50 in the assay on UACC-62 is 15.4 µM (inactive).
Regarding `O=C(/C=C/c1ccc(Cl)cc1)c1nc2ccccc2[nH]1`, the GI50 with ACHN was 48.9 µM (inactive); in the assay with CAKI-1, 3.44 µM (inactive); with EKVX, 25.7 µM (inactive); in the assay on HCC 2998, 12.8 µM (inactive); in the assay with HCT-116, 16.7 µM (inactive); in the assay on HCT-15, 17.5 µM. For the same compound, the GI50 in the assay with HOP-92 was > 100 µM (inactive); in the assay on MCF7, 2.22 µM (inactive); in the assay on Malme-3M, > 100 µM (inactive); in the assay with NCI-H23 it was 48.8 µM (inactive); with NCI/ADR-RES, 42.5 µM (inactive); in the assay with OVCAR-5, 95.7 µM (inactive). In addition, the GI50 is 34.8 µM (inactive) in the assay with OVCAR-8, 34.6 µM (inactive) with SNB-19 and 35.9 µM (inactive) in the assay with UACC-62.
Turning to `C(=N\NC1=NCCCN1)/c1ccc(-c2cn3cc(/C=N/NC4=NCCCN4)ccc3n2)cc1`, the GI50 is 42 µM (inactive) in the assay on ACHN; 37 µM (inactive) in the assay on CAKI-1; 45.9 µM (inactive) in the assay on EKVX; > 53.3 µM (inactive) with HCC 2998; > 88.3 µM (inactive) in the assay on HCT-116; more than 100 µM in the assay with HCT-15. Moreover, the GI50 in the assay with HL-60 was 20.7 µM (inactive); with HOP-92, 59 µM (inactive); in the assay with MCF7, 32 µM (inactive); in the assay on MOLT-4, 5.73 µM (inactive); with Malme-3M it was 19 µM (inactive); in the assay on NCI-H23 it was > 100 µM (inactive). In addition, the GI50 is > 100 µM (inactive) in the assay on NCI/ADR-RES; > 100 µM (inactive) with OVCAR-5; > 50.2 µM (inactive) with OVCAR-8; 61.1 µM (inactive) with RXF 393; > 100 µM (inactive) in the assay on SNB-19; > 88.9 µM (inactive) with U-251. Also, the GI50 in the assay on UACC-62 is > 100 µM (inactive).
Take `C[C@]12CC[C@H]3[C@@H](CC=C4C[C@@H](O)CC[C@@]43C)[C@@H]1CC[C@@H]2N(CCO)CCO`: the GI50 in the assay on ACHN is 30.7 µM (inactive); in the assay on CAKI-1, 45.3 µM (inactive); in the assay on EKVX, 19.4 µM (inactive); in the assay with HCC 2998, 27 µM (inactive); in the assay with HCT-116, 26.9 µM (inactive); with HCT-15, 71.4 µM. The GI50 in the assay on HOP-92 was 64 µM (inactive); with MCF7, 33.2 µM (inactive); in the assay on MOLT-4 it was > 100 µM (inactive); in the assay with Malme-3M it was 31 µM (inactive); with NCI-H23 it was > 100 µM (inactive); with NCI/ADR-RES, > 100 µM (inactive). Moreover, the GI50 with OVCAR-5 was 55.1 µM (inactive); with OVCAR-8, 88.5 µM (inactive); in the assay on RXF 393, 36.1 µM (inactive); in the assay on SNB-19, 68.1 µM (inactive); in the assay on U-251, 59.8 µM (inactive); in the assay with UACC-62, 35.3 µM (inactive).
For the compound `CCn1c2c(n(CC)c1=S)-c1c(n(CC)c(=S)n1CC)SSSS2`, the GI50 with ACHN is 5.02 µM (inactive); in the assay on CAKI-1, 17.9 µM (inactive); in the assay on EKVX it was 14.5 µM (inactive); in the assay on HCC 2998, 25.4 µM (inactive); with HCT-116 it was 3.4 µM (inactive); in the assay on HCT-15, 4.49 µM. The GI50 was 2.9 µM (inactive) with HL-60; 3.33 µM (inactive) in the assay on HOP-92; 16 µM (inactive) in the assay with MCF7; 2.31 µM (inactive) with MOLT-4; 2.83 µM (inactive) in the assay with Malme-3M; 8.75 µM (inactive) with NCI-H23. The GI50 was 17.3 µM (inactive) in the assay with OVCAR-5; 8.77 µM (inactive) with OVCAR-8; 1.36 µM (inactive) in the assay on RXF 393; > 84.1 µM (inactive) in the assay on SNB-19; 1.69 µM (inactive) in the assay with SR; 22.2 µM (inactive) in the assay on U-251. Also, the GI50 in the assay with UACC-62 is 10.7 µM (inactive).
For `C=CCOC(=O)CCCCCCCCCCCCCCCOC(=O)c1c(CCC[C@@H](C)O[Si](C)(C)C(C)(C)C)nc([O-])[n+]2c1CC[C@H]2CC1(CC/C=C\[C@H](CC)O[Si](C(C)C)(C(C)C)C(C)C)OCCO1`, the GI50 in the assay with ACHN was 35.7 µM (inactive); with CAKI-1, > 100 µM (inactive); in the assay with EKVX, > 100 µM (inactive); with HCC 2998, 73.8 µM (inactive); in the assay on HCT-116, 47.1 µM (inactive); in the assay on HCT-15, 46 µM. The GI50 in the assay with HOP-92 was 18.2 µM (inactive); in the assay on MCF7, 53.5 µM (inactive); with Malme-3M it was > 100 µM (inactive); in the assay on NCI-H23 it was > 100 µM (inactive); in the assay with NCI/ADR-RES it was > 100 µM (inactive); in the assay with OVCAR-5, 30.1 µM (inactive). For the same compound, the GI50 was 80.2 µM (inactive) with SNB-19, 17.2 µM (inactive) in the assay with U-251 and 30.4 µM (inactive) with UACC-62.
On to `Nc1ccc(-c2nc3ccccc3s2)cc1F`, for which the GI50 is 22 µM (inactive) with ACHN; 19.5 µM (inactive) in the assay on CAKI-1; 2.59 µM (inactive) in the assay on EKVX; 15.5 µM (inactive) with HCT-116; 33.2 µM in the assay on HCT-15; 45.4 µM (inactive) with HOP-92. The GI50 was < 0.01 µM (active) in the assay with MCF7; 10.8 µM (inactive) in the assay with MOLT-4; 42 µM (inactive) in the assay with Malme-3M; 52.1 µM (inactive) in the assay on NCI-H23; 28.8 µM (inactive) in the assay with NCI/ADR-RES; > 100 µM (inactive) in the assay with OVCAR-8. Also, the GI50 is 27.2 µM (inactive) in the assay with RXF 393; 19.2 µM (inactive) in the assay with SNB-19; 23.6 µM (inactive) with SR; 15.4 µM (inactive) in the assay with U-251; 20.7 µM (inactive) in the assay with UACC-62.
For the compound `C=C(C)[C@H]1CC(=O)/C(C)=C\CC/C(C)=C/CC[C@@]2(C)O[C@@H]2C1`, the GI50 in the assay with ACHN is 29.4 µM (inactive); with CAKI-1, 1.99 µM (inactive); in the assay with HCC 2998, 34.5 µM (inactive); in the assay on HCT-116, 16 µM (inactive); in the assay on HCT-15, 33.9 µM; in the assay on HL-60, 27.5 µM (inactive). Moreover, the GI50 in the assay with HOP-92 was 48.5 µM (inactive); in the assay on MOLT-4 it was 31.8 µM (inactive); with Malme-3M, 36.8 µM (inactive); in the assay on NCI-H23 it was 22.3 µM (inactive); in the assay on NCI/ADR-RES it was 21.8 µM (inactive); in the assay with OVCAR-5, 35.4 µM (inactive). Moreover, the GI50 is 35.5 µM (inactive) with OVCAR-8; 59.8 µM (inactive) with SNB-19; 25.4 µM (inactive) in the assay on SR; 22.5 µM (inactive) in the assay with U-251; 8.47 µM (inactive) with UACC-62.
Regarding `c1ccc(/N=c2/sc3ccccc3s/c2=N/c2ccccc2)cc1`, the GI50 was 1.66 µM (inactive) in the assay on ACHN; 1.87 µM (inactive) in the assay with CAKI-1; 2.76 µM (inactive) in the assay with EKVX; 1.84 µM (inactive) in the assay with HCC 2998; 1.72 µM (inactive) in the assay on HCT-116; 1.75 µM in the assay on HCT-15. Further, the GI50 was 6.41 µM (inactive) in the assay on HL-60; 2 µM (inactive) in the assay with HOP-92; 5.18 µM (inactive) in the assay with MOLT-4; 1.86 µM (inactive) with Malme-3M; 1.96 µM (inactive) in the assay on NCI-H23; 2.67 µM (inactive) with NCI/ADR-RES. Moreover, the GI50 is 2.11 µM (inactive) in the assay on OVCAR-5; 1.89 µM (inactive) in the assay on OVCAR-8; 1.82 µM (inactive) in the assay with RXF 393; 4.71 µM (inactive) with SNB-19; 3.35 µM (inactive) in the assay on SR; 1.86 µM (inactive) in the assay on U-251. Also, the GI50 in the assay on UACC-62 is 1.36 µM (inactive).
`CC(C)(C)NCC(O)COc1cccc2[nH]c(C#N)cc12` (centres undefined) [CYANOPINDOLOL]: the GI50 is > 100 µM (inactive) with ACHN; > 100 µM (inactive) in the assay on CAKI-1; > 100 µM (inactive) with EKVX; > 100 µM (inactive) in the assay with HCT-116; more than 100 µM in the assay on HCT-15; > 100 µM (inactive) with HL-60. The GI50 with MCF7, in the assay with MOLT-4, in the assay on Malme-3M, with NCI-H23, in the assay on NCI/ADR-RES and in the assay with OVCAR-5 was > 100 µM (inactive) in each case. In addition, the GI50 in the assay on OVCAR-8, in the assay with SNB-19, in the assay with SR, in the assay on U-251 and in the assay on UACC-62 was > 100 µM (inactive) throughout.
As to `O=C(O)c1cccc(S(=O)(=O)NN2C(=O)CSC2c2ccccc2)c1` (centres undefined), the GI50 in the assay on ACHN is > 100 µM (inactive); with CAKI-1 it was > 100 µM (inactive); in the assay on EKVX, > 100 µM (inactive); with HCC 2998 it was > 100 µM (inactive); in the assay on HCT-116, > 100 µM (inactive); in the assay with HCT-15, more than 100 µM. For the same compound, the GI50 in the assay with HL-60 was 4.4 µM (inactive); in the assay on HOP-92 it was > 100 µM (inactive); in the assay with MCF7 it was > 100 µM (inactive); with MOLT-4, > 100 µM (inactive); in the assay with Malme-3M, > 100 µM (inactive); with NCI-H23, > 100 µM (inactive). For the same compound, the GI50 in the assay on OVCAR-5 was > 100 µM (inactive); in the assay on OVCAR-8, > 100 µM (inactive); in the assay on RXF 393 it was > 100 µM (inactive); in the assay with SNB-19, > 100 µM (inactive); in the assay on SR, 32.9 µM (inactive); in the assay with U-251, > 100 µM (inactive). Besides, the GI50 in the assay with UACC-62 was > 100 µM (inactive).
